Measurements reported in patent publication US7829524B2, “Antimicrobial peptides” (Novozymes Adenium Biotech A/S, priority 2003, dated 2010).
Like-named read-outs stand apart in the source and are kept apart here.

Tested on: E. coli TOP10
Assay type: cell-based
Conditions: end point OD450, 14 hours
Description: A range of synthetic antimicrobial polypeptides were expressed in E. coli TOP10 (Invitrogen) using arabinose as inducer, as disclosed in Example 1 of International patent application WO 00/73433 (with minor modifications). […] Briefly, fresh overnight cultures grown in RM medium containing 0.2% glucose and ampicillin (100 μg/ml) were diluted 300-fold into 150 microliter of RM containing 0.2% glycerol and ampicillin (100 μg/ml) and different concentrations of arabinose (0, 0.01% or 0.1%) in a microtiter plate and incubated at 37 degrees Celsius with vigorous shaking. The growth curve was monitored by measuring OD450 using a Bioscreen C Microbiology reader (Thermo Electron Corporation) at intervals of 30 minutes for 14 hours (see Invitrogen protocol of the pBAD/gill A, B and C vectors catalogue nos. V450-01 for buffer and media composition). The percentage of growth inhibition was calculated as the end point OD measurement of each sample divided by the end point OD measurement obtained from cells containing the control vector and multiplied by 100. The formula is the following: [formula] where “blank OD” corresponds to the OD of an empty well.

“GLFKRLRKKIGKKLKKFGQKIKPLRKLVP (Synthetic antimicrobial peptide) [SEQ ID NO: 18]” was tested, and the “Growth inhibition using 0.1% arabinose (%)” value (Table 5) was 94%.
For “GLFRRFGKKIGKKIIKKIGQKIKPIHKLVP (GLFRRFGKKIGKKLKKIGQKIKPIHKLVP; Synthetic antimicrobial peptide) [SEQ ID NO: 43]”, the “Growth inhibition using 0.1% arabinose (%)” value (Table 5) was 76%.
“GLFRRFGKKIGKKLKKIGQVIKALRILVP (Synthetic antimicrobial peptide) [SEQ ID NO: 39]” was tested, and the “Growth inhibition using 0.1% arabinose (%)” value (Table 5) was 95%.
“GLFRRFRRKIGKKLKKFGQKIKPLRKLVP (Synthetic antimicrobial peptide) [SEQ ID NO: 20]” was tested, and the “Growth inhibition using 0.1% arabinose (%)” value (Table 5) was 97%.
“GLFRRFWKKIGRKLKKIGQKIKPLQILVP (Synthetic antimicrobial peptide) [SEQ ID NO: 47]” was tested, and the “Growth inhibition using 0.1% arabinose (%)” value (Table 5) was 79%.
“GLFRRIRRKIGKKFKKFGQVIKPLRKLVP (Synthetic antimicrobial peptide) [SEQ ID NO: 52]” was tested, and the “Growth inhibition using 0.1% arabinose (%)” value (Table 5) was 95%.
In the case of “GLFRRLGKKIGKKIKKFGQVIKHIRILVP (GLFRRLGKKIGKKLKKFGQVIKHIRILVP; Synthetic antimicrobial peptide) [SEQ ID NO: 34]”, the “Growth inhibition using 0.1% arabinose (%)” value (Table 5) is reported as 92%.
For “GLFRRLGRKIGKKLKKIGQVIKHIRILVP (Synthetic antimicrobial peptide) [SEQ ID NO: 36]”, the “Growth inhibition using 0.1% arabinose (%)” value (Table 5) was 95%.
With “GLFRRLKRKIGKKLKKIAR (Synthetic antimicrobial peptide) [SEQ ID NO: 65]” the “Growth inhibition using 0.01% arabinose (%)” value (Table 6) was 91% and the “Growth inhibition using 0.1% arabinose (%)” value (Table 6) was 99%.
“GLFRRLKRKIGRKFKKIAR (Synthetic antimicrobial peptide) [SEQ ID NO: 60]” was tested, and the “Growth inhibition using 0.01% arabinose (%)” value (Table 6) was 85% and the “Growth inhibition using 0.1% arabinose (%)” value (Table 6) was 99%.
With “GLFRRLRGKIGKKLKKIGQKIKAIRILVP (Synthetic antimicrobial peptide) [SEQ ID NO: 33]” the “Growth inhibition using 0.1% arabinose (%)” value (Table 5) was 91%.
In the case of “GLFRRLRKKIGKKFKKIAR (Synthetic antimicrobial peptide) [SEQ ID NO: 69]”, the “Growth inhibition using 0.01% arabinose (%)” value (Table 6) is reported as 86% and the “Growth inhibition using 0.1% arabinose (%)” value (Table 6) is reported as 99%.
For “GLFRRLRKKIGKKLKKIAR (Synthetic antimicrobial peptide) [SEQ ID NO: 64]”, the “Growth inhibition using 0.01% arabinose (%)” value (Table 6) was 92% and the “Growth inhibition using 0.1% arabinose (%)” value (Table 6) was 99%.
“GLFRRLRKKIGKKLKKIGQLIKAIRILVP (Synthetic antimicrobial peptide) [SEQ ID NO: 23]” was tested, and the “Growth inhibition using 0.1% arabinose (%)” value (Table 5) was 97%.
With “GLFRRLRRKIGKKFKKFGQKIKPLRKLVP (Synthetic antimicrobial peptide) [SEQ ID NO: 46]” the “Growth inhibition using 0.1% arabinose (%)” value (Table 5) was 96%.
With “GLLKRFRGKIGKKLKKYGQLIKAIRILVP (Synthetic antimicrobial peptide) [SEQ ID NO: 22]” the “Growth inhibition using 0.1% arabinose (%)” value (Table 5) was 90%.
“GLLKRLGRKIGKKFKKIAR (Synthetic antimicrobial peptide) [SEQ ID NO: 61]” was tested, and the “Growth inhibition using 0.01% arabinose (%)” value (Table 6) was 89% and the “Growth inhibition using 0.1% arabinose (%)” value (Table 6) was 98%.
“GLLKRLGRKIGKKLKKFGQKIKAIRKLVP (Synthetic antimicrobial peptide) [SEQ ID NO: 8]” was tested, and the “Growth inhibition using 0.01% arabinose (%)” value (Table 4) was 97% and the “Growth inhibition using 0.1% arabinose (%)” value (Table 4) was 100%.
For “GLLKRLRKKIGKKLKKIGPKIKHIRKLVP (Synthetic antimicrobial peptide) [SEQ ID NO: 10]”, the “Growth inhibition using 0.01% arabinose (%)” value (Table 4) was 93% and the “Growth inhibition using 0.1% arabinose (%)” value (Table 4) was 100%.
“GLLKRLRKKIGKKLKKIGQKIKPIRKLVP (Synthetic antimicrobial peptide) [SEQ ID NO: 25]” was tested, and the “Growth inhibition using 0.1% arabinose (%)” value (Table 5) was 94%.
With “GLLKRLRKKIGKKLKKIGQMIKHIRILVP (Synthetic antimicrobial peptide) [SEQ ID NO: 44]” the “Growth inhibition using 0.1% arabinose (%)” value (Table 5) was 93%.
“GLLRRFGKKIGKKFKKYGQKIKNLRILVP (Synthetic antimicrobial peptide) [SEQ ID NO: 24]” was tested, and the “Growth inhibition using 0.1% arabinose (%)” value (Table 5) was 92%.
For “GLLRRFGRKIGKKFKKFGPKIKHLRKLVP (Synthetic antimicrobial peptide) [SEQ ID NO: 26]”, the “Growth inhibition using 0.1% arabinose (%)” value (Table 5) was 92%.
For “GLLRRFGRKIGKKFKKFGPKIKILRKLVP (GLLRRFGRKIGKKFKKFGPKIKHLRKLVP; Synthetic antimicrobial peptide) [SEQ ID NO: 19]”, the “Growth inhibition using 0.1% arabinose (%)” value (Table 5) was 91%.
“GLLRRFRBEIGKKLKKYGQKIKHLRKLVP (GLLRRFREKIGKKLKKYGQKIKHLRKLVP; Synthetic antimicrobial peptide) [SEQ ID NO: 45]” was tested, and the “Growth inhibition using 0.1% arabinose (%)” value (Table 5) was 79%.
For “GLLRRFRKKIGEKFKKFGQKIKNIRILVP (Synthetic antimicrobial peptide) [SEQ ID NO: 55]”, the “Growth inhibition using 0.1% arabinose (%)” value (Table 5) was 79%.
For “GLLRRFRKKIGGKLKKYGQIIKHLRILVP (Synthetic antimicrobial peptide) [SEQ ID NO: 5]”, the “Growth inhibition using 0.01% arabinose (%)” value (Table 4) was 94% and the “Growth inhibition using 0.1% arabinose (%)” value (Table 4) was 100%.
For “GLLRRFRKKIGKKLKKITR (Synthetic antimicrobial peptide) [SEQ ID NO: 67]”, the “Growth inhibition using 0.01% arabinose (%)” value (Table 6) was 90% and the “Growth inhibition using 0.1% arabinose (%)” value (Table 6) was 100%.
In the case of “GLLRRFRKKIGKKLKKYGQKIKHLRILVP (Synthetic antimicrobial peptide) [SEQ ID NO: 57]”, the “Growth inhibition using 0.1% arabinose (%)” value (Table 5) is reported as 95%.
In the case of “GLLRRFRNKIGKKLKKIGQKIKPIRKLVP (Synthetic antimicrobial peptide) [SEQ ID NO: 50]”, the “Growth inhibition using 0.1% arabinose (%)” value (Table 5) is reported as 92%.
“GLLRRFRRKIGRKLKKYGLMIKPLRKLVP (Synthetic antimicrobial peptide) [SEQ ID NO: 21]” was tested, and the “Growth inhibition using 0.1% arabinose (%)” value (Table 5) was 94%.
“GLLRRFWMKIGGKLKKFGQMIKHLRKLVP (Synthetic antimicrobial peptide) [SEQ ID NO: 11]” was tested, and the “Growth inhibition using 0.01% arabinose (%)” value (Table 4) was 92% and the “Growth inhibition using 0.1% arabinose (%)” value (Table 4) was 99%.
With “GLLRRIIGKKIGKKFKKCGQVIKAIRILVP (GLLRRLGKKIGKKFKKCGQVIKAIRILVP; Synthetic antimicrobial peptide) [SEQ ID NO: 54]” the “Growth inhibition using 0.1% arabinose (%)” value (Table 5) was 89%.
“GLLRRLGKKIGKKFKKFGQVIKALRILVP (Synthetic antimicrobial peptide) [SEQ ID NO: 35]” was tested, and the “Growth inhibition using 0.1% arabinose (%)” value (Table 5) was 95%.
With “GLLRRLGRKIGKKLKKIGQKIKAIRILVP (Synthetic antimicrobial peptide) [SEQ ID NO: 49]” the “Growth inhibition using 0.1% arabinose (%)” value (Table 5) was 96%.
“GLLRRLRGKIGKKLKKIGQKIKAIRKLVP (Synthetic antimicrobial peptide) [SEQ ID NO: 4]” was tested, and the “Growth inhibition using 0.01% arabinose (%)” value (Table 4) was 89% and the “Growth inhibition using 0.1% arabinose (%)” value (Table 4) was 100%.
In the case of “GLLRRLRKKIEKKLKKYGPKIKALRKLVP (Synthetic antimicrobial peptide) [SEQ ID NO: 37]”, the “Growth inhibition using 0.1% arabinose (%)” value (Table 5) is reported as 94%.
With “GLLRRLRKKIGKKLKFFGQKIKHIRILVP (GLLRRLRKKIGKKLKKFGQKIKHIRILVP; Synthetic antimicrobial peptide) [SEQ ID NO: 7]” the “Growth inhibition using 0.01% arabinose (%)” value (Table 4) was 93% and the “Growth inhibition using 0.1% arabinose (%)” value (Table 4) was 100%.
In the case of “GLLRRLRKKIGKKLKKIGQKIKPIRKLVP (Synthetic antimicrobial peptide) [SEQ ID NO: 56]”, the “Growth inhibition using 0.1% arabinose (%)” value (Table 5) is reported as 94%.
“GLLRRLRKKIGKKLKKITR (Synthetic antimicrobial peptide) [SEQ ID NO: 63]” was tested, and the “Growth inhibition using 0.01% arabinose (%)” value (Table 6) was 95% and the “Growth inhibition using 0.1% arabinose (%)” value (Table 6) was 99%.
In the case of “GLLRRLRKKIGRKFKKIAR (Synthetic antimicrobial peptide) [SEQ ID NO: 68]”, the “Growth inhibition using 0.01% arabinose (%)” value (Table 6) is reported as 91% and the “Growth inhibition using 0.1% arabinose (%)” value (Table 6) is reported as 100%.
For “GLLRRLRNKIRKKLKKFGQKIKAIRILVP (Synthetic antimicrobial peptide) [SEQ ID NO: 16]”, the “Growth inhibition using 0.01% arabinose (%)” value (Table 4) was 96% and the “Growth inhibition using 0.1% arabinose (%)” value (Table 4) was 100%.
With “GLLRRLRRKIGGKLKKFGQKIKPLRKLVP (Synthetic antimicrobial peptide) [SEQ ID NO: 6]” the “Growth inhibition using 0.01% arabinose (%)” value (Table 4) was 92% and the “Growth inhibition using 0.1% arabinose (%)” value (Table 4) was 100%.
With “GLLRRLRRKIGKKFKKIGQVIKHLRKLVP (Synthetic antimicrobial peptide) [SEQ ID NO: 32]” the “Growth inhibition using 0.1% arabinose (%)” value (Table 5) was 97%.
In the case of “GLLRRLRRKIGKKLKKFGQKIKHIRILVP (Synthetic antimicrobial peptide) [SEQ ID NO: 15]”, the “Growth inhibition using 0.01% arabinose (%)” value (Table 4) is reported as 96% and the “Growth inhibition using 0.1% arabinose (%)” value (Table 4) is reported as 100%.
With “GLLRRLWKKIGRKFKKYGQVIKHIRKLVP (Synthetic antimicrobial peptide) [SEQ ID NO: 48]” the “Growth inhibition using 0.1% arabinose (%)” value (Table 5) was 97%.
For “GLVRRFRRKIGKKLKKIGQIIKAIRKLVP (Synthetic antimicrobial peptide) [SEQ ID NO: 31]”, the “Growth inhibition using 0.1% arabinose (%)” value (Table 5) was 96%.
